Measurements published in PMC8587750, “Structural Optimization and Biological Activity of Pyrazole Derivatives: Virtual Computational Analysis, Recovery Assay and 3D Culture Model as Potential Predictive Tools of Effectiveness against Trypanosoma cruzi” (Molecules, 2021).
Entries after “also recorded” stand apart in the source; their conditions may differ. Read-outs that look alike come from different tables or passages of the source.

What was measured:
[1] = system: trypomastigote forms of T. cruzi; experiment: Phenotypic screening against T. cruzi trypomastigotes (Dm28c-Luc, luciferase viability, 24 h); assay type: cell-based, Trypanosoma cruzi; details: for Trypomastigotes SI: CC50 of Vero cells/IC50 of trypomastigote; for IC50 / IC90: Trypanosoma cruzi, Dm28c-Luc, 24 h; for IC50: read-out: Trypanocidal Activity Trypomastigotes IC50; for IC90: read-out: Trypanocidal Activity Trypomastigotes IC90
Description: (§1) T. cruzi Dm28c clone genetically modified to express luciferase, kindly provided by Dr. Cristina Henriques from Oswaldo Cruz Institute–Fiocruz, was used in the drug assays. Trypomastigotes were harvested from T. cruzi-infected Vero cultures supernatants at 4th days post-infection (dpi) and used in the phenotypic screening assay. For intracellular amastigotes assays, Vero cells (2D and 3D cultures) were infected at a ratio of 10:1 parasites/host cells.
The phenotypic compound screening was performed using transgenic T. cruzi parasites expressing the firefly luciferase (Dm28c-Luc). Trypomastigotes (1 × 10^6 parasites/well) were treated for 24 h at 37 °C with the pyrazole derivatives and Bz (0.04–100 μM), followed by incubation with luciferin substrate (300 µg/mL) to determine parasite viability through luciferase activity. The concentration that reduces the number of viable parasites by 50% (IC50) or 90% (IC90) was calculated by linear regression. The luminescent signal was read on a Glomax-Multi Detection plate reader (Promega Corporation, Madison, WI, EUA)). At least three independent assays were performed in duplicate.

[2] = Cytotoxicity in vitro assay (ATP, CellTiter Glo, 72 h); assay type: cell-based; details: African green monkey, Vero cells
Protocol: Vero cells, obtained from the Rio de Janeiro Cell Bank (BCRJ code 0245), were cultured in RPMI-1640 supplemented with 10% fetal bovine serum (FBS) and 1 mM L-glutamine, as previously described. Vero cells were used for drug screening assays and to obtain trypomastigote forms of T. cruzi.
Vero cells were used as a cellular model to analyze the toxic effect of pyrazole derivatives, series 1(a–l), 2(a–l), 3(a–n), 4(a–c), and 5(a–c), and Benznidazole (Bz) on mammalian cells. Briefly, the cells, plated on 96-well white opaque microplate (1.5 × 10^4 cells/well), were treated for 72 h at 37 °C with a wide range concentration (500–1.95 µM) of the pyrazole derivatives. The cell viability was determined by measuring ATP levels using the CellTiter Glo Kit (Promega Corporation, Madison, WI, EUA) followed by reading the luminescent signal on the Glomax-Multi Detection plate reader (Promega Corporation, Madison, WI, EUA)). All treatments and controls were performed at a low concentration of DMSO (≤1%). The 50% cytotoxic concentration values (CC50; the concentration of the compound that reduces 50% of the cell viability) were estimated by linear regression analysis. Three independent assays were performed in duplicate.

[3] = system: intracellular parasites in T. cruzi-infected microtissue; experiment: 3D-microtissue-based phenotypic screening (T. cruzi-infected Vero spheroids); assay type: cell-based, Trypanosoma cruzi; details: 72 h treatment; for viability of intracellular parasites in microtissue, luminescence intensity (ALU): Bz 100 µM
Protocol: Vero cells were seeded at a density of 2 × 10^5 cells/well in a 96-well U-bottom plate previously coated with agarose (1%). The 3D cultures, adapted from, were cultivated for 4 days in RPMI 1640 medium supplemented with 10% FBS and L-glutamine for complete 3D microtissue formation. The 3D culture model was used as a tool to evaluate the effectiveness of promising derivatives in eliminating intracellular parasites in the microtissue.
The 3D-microtissue-based phenotypic screening was performed with the promising pyrazole derivatives. […] At the end of the treatment, the 3D cultures supernatants were removed, and luciferin (300 μg/mL) was added to the spheroids. The luminescent signal was read on the Glomax-Multi Detection reader (Promega Corporation, Madison, WI, USA). Bz (100 µM) and DMSO (≤1%) were used as positive and negative control, respectively. The IC50 value was calculated by linear regression. At least three independent assays were performed in quadruplicate.

[4] = system: T. cruzi cysteine protease; experiment: Cysteine protease activity of trypomastigote total protein extracts (Z-FR-AMC); assay type: biochemical, Trypanosoma cruzi; details: for maximum inhibition of cysteine protease enzymatic activity: 300 µM, Z-FR-AMC 60 µM, pH 5.0, 37 °C
Protocol: Total protein extract from trypomastigotes (Dm28c-Luc; 10^8 parasites/mL) were extracted with lysis buffer. Cysteine protease activity of extracts (5 μg) was measured in acetate buffer using fluorogenic peptide substrate (60 μM of 7-Amino-4-Methylcoumarin hydrochloride, CBZ-L-Phenylalanyl-L-Arginine amide (Z-FR-AMC). Total protein extracts were incubated for 45 min at room temperature with the compounds and changes in relative fluorescence units monitored using a SpectraMaxM2e spectrophotometer (Molecular Devices, Sunnyvale, CA, USA) for 1 h with excitation at 370 nm and emission at 460 nm. The inhibition assays were performed by coincubation with different compounds (3g, 3j, and 3m) and concentrations (300–11.11 µM) and transepoxysuccinyl-L-leucylamido-(4-guanidino) butane (E-64). Additional control was carried out with DMSO (≤1%). Enzymatic activity was expressed in µmol/min/mg of protein and the residual activity in percentage.
Figure 6 Inhibition of T. cruzi cysteine protease activity. Total protein extracts of trypomastigotes (5 µg), was incubated at different concentrations (300–11.11 µM) of compounds E64 (black circle), 3g (black triangle), 3j (black square) and 3m (white circle) in enzyme activation buffer pH 5.0, at 37 °C. Enzyme activity was measured using a specific fluorogenic peptide substrate Z-FR-AMC (60 µM). Results are presented as percentage of inhibition of enzyme activity (%) and represent the mean and standard deviation (±) of three independent experiments.

[5] = system: intracellular amastigotes of T. cruzi; experiment: Activity against intracellular amastigotes in infected Vero cells (Dm28c-Luc, 72 h); assay type: cell-based, Trypanosoma cruzi; details: for IC90: read-out: Trypanocidal Activity Intracellular Amastigotes IC90
Description: as §1
The effect of the pyrazole derivatives against intracellular amastigotes was also evaluated after 72 h treatment (37 °C) with compound concentrations ranging from 0.04–100 µM [13]. Parasite viability, measured by luminescent signal, was determined after luciferin (300 µg/mL) addition. IC50 and IC90 values were calculated by linear regression. Selectivity index (SI) was calculated as the ratio of the CC50 to IC50 values. The non-toxic concentration of DMSO (less than 1% v/v) was used in all assays. A minimum of three independent assays was carried out in duplicate.

[6] = system: T. cruzi (Dm28c-Luc) in Vero cells; experiment: Reversibility (washout) assay, parasite recrudescence in infected Vero cells; assay type: cell-based, Trypanosoma cruzi; details: for decrease of parasite load compared to untreated infected Vero cell cultures: 72 h treatment at IC90, washout, 72 h without drug
Protocol: To address the question of whether the treatment with 3g, 3j, and 3m leads to parasite clearance, an intracellular T. cruzi washout assay was performed as a strategy for monitoring the parasite recrudescence. In this approach, cultures of infected Vero cells (Dm28c-Luc) were treated for 72 h at IC90 and 50 µM (2 to 5-fold de IC90) concentrations of the promising compounds 3g, 3j, and 3m and, after washing the cell monolayers, the cultures were kept for another 72 h without drug treatment. Both cell monolayers and their supernatants were evaluated for the presence of viable parasites after luciferin addition. All derivatives analyzed relapsed at the IC90 concentration (Figure 3). However, treatment with 3g, 3j, and 3m led to a significant reduction in the parasite load, reaching a decrease of 4.5-, 1.9-, and 8.7-fold, respectively, when compared to untreated infected Vero cells cultures (Figure 3). The emergence of trypomastigotes in the supernatant, at IC90 concentration, was observed three days after removal of drug pressure, but with a significant reduction in viable parasites compared to untreated cultures (Figure 3). Parasite recrudescence was not seen in 100 µM Bz treatment (Figure 3).
The washout assay, adapted from, was performed to evaluate the promising compounds efficacy. […] After successive washing, the cultures were maintained for an additional 72 h at 37 °C in RPMI 1640 medium supplemented with 10% SFB in the absence of the compound. Luciferin (300 µg/mL) was added separately to the culture supernatant, previously removed, and the cell monolayer. The luminescent signal was read on the Glomax-Multi Detection reader (Promega Corporation, Madison, WI, USA). Bz (100 µM) and DMSO (≤1%) were used as positive and negative reaction controls, respectively.

[7] = system: T. cruzi-infected cardiac microtissue; design: method as in PMID 32564978; details: 5 nM; cited from earlier work
[8] = system: trypomastigote forms of T. cruzi; design: method as in PMID 31434040; details: read-out: IC50 against trypomastigotes; cited from earlier work
[9] = Trypanosoma cruzi, Vero, negative log of the IC50 value in molar, read-out: Intracellular Amastigotes pIC50 (converted)
[10] = Trypanosoma cruzi, Vero cells infected with Dm28c-Luc, 72 h

Compound | Trypomastigotes SI [1] | IC50 [1] | IC90 [1] | CC50 at 72 h [2] | viability of intracellular parasites in microtissue, luminescence intensity (ALU) [3] | maximum inhibition of cysteine protease enzymatic activity [4] | IC50 [5, 9] | IC90 [5, 10] | decrease of parasite load compared to untreated infected Vero cell cultures [6] | other results
Brc1ccc(-n2cc(C3=NCCN3)cn2)cc1 [Compound 3j, 1-(4-bromophenyl)-4-(4,5-dihydro-1H-imidazol-2-yl)-1H-pyrazole] | 5.36 | 57.7 ± 3.14 µM | 95.3 ± 5.43 µM | 309 ± 34.3 µM | 39,001 ± 9952 ALU | 26% | 2.75 µM | 9.67 ± 0.3 µM | 1.9 fold | –
Cc1ccc(-n2cc(C3=NCCN3)cn2)cc1Cl [Compound 3m, 1-(3-chloro-4-methylphenyl)-4-(4,5-dihydro-1H-imidazol-2-yl)-1H-pyrazole] | 4.64 | 34.5 ± 8.32 µM | > 100 µM | 161 ± 16.1 µM | 12,683 ± 3976 ALU | 26% | 3.55 µM | 21.4 ± 1.25 µM | 8.7 fold | reduction of microtissue infection [3]: 93%; fold increase of activity against intracellular amastigotes versus hit compound ([5]; compared to hit compound): 3.8 fold; trypanocidal activity fold higher than 3e ([5]; intracellular amastigotes): 21 fold; parasite recrudescence / efficacy ([6]; 50 µM (2 times IC90), 72 h after washout): without parasitism recrudescence; also recorded: same activity profile as 100 µM Bz
CC(C)C[C@H](NC(=O)[C@H]1O[C@@H]1C(=O)O)C(=O)NCCCCN=C(N)N [Compound E-64, transepoxysuccinyl-L-leucylamido-(4-guanidino) butane, reference compound] | – | – | – | – | – | – | – | – | – | inhibition of cysteine protease enzymatic activity ([4]; concentrations ≥ 11.11 µM): greater than 80%
O=C(Cn1ccnc1[N+](=O)[O-])NCc1ccccc1 [Bz, benznidazole, reference compound] | >26.7 | 18.7 ± 4.58 µM | > 100 µM | > 500 µM | 18,858 ± 3726 ALU | – | 4.68 µM | > 100 µM | – | Intracellular Amastigotes SI ([5]; CC50 of Vero cells/IC50 of intracellular amastigote): >107; IC50 ([5]; Trypanosoma cruzi, Vero cells infected with Dm28c-Luc, 72 h, read-out: Trypanocidal Activity Intracellular Amastigotes IC50): 4.67 ± 0.22 µM; parasite recrudescence ([6]; 100 µM, 72 h after washout): not seen
CC[C@@H]([C@H](C)O)n1ncn(-c2ccc(N3CCN(c4ccc(OC[C@@H]5CO[C@@](Cn6cncn6)(c6ccc(F)cc6F)C5)cc4)CC3)cc2)c1=O [Posaconazole, posaconazole] | – | – | – | – | – | – | – | – | – | reduction of parasite load [7]: 50%
5-amino-1-aryl-4-(4,5-dihydro-1H-imidazol-2-yl)-1H-pyrazole [hit compound] | – | – | – | – | – | – | – | – | – | IC50 [8]: 9.5 ± 1.2 µM
Clc1ccc(-n2cc(C3=NCCN3)cn2)cc1 [Compound 3g, 1-(4-chlorophenyl)-4-(4,5-dihydro-1H-imidazol-2-yl)-1H-pyrazole] | 4.27 | 64.6 ± 1.56 µM | > 100 µM | 277 ± 15.8 µM | 36,130 ± 5764 ALU | 26% | 6.03 µM | 26.1 ± 14.3 µM | 4.5 fold | IC50 ([5]; Trypanosoma cruzi, Vero, 72 h, Vero cells infected with Dm28c-Luc, 72 h, read-out: Trypanocidal Activity Intracellular Amastigotes IC50): < 10 µM; IC50 ([5]; Vero cells infected with Dm28c-Luc, 72 h, read-out: Trypanocidal Activity Intracellular Amastigotes IC50): 6.09 ± 0.52 µM
